The results in this text go back to patent US20250268826A1, “IONIZABLE LIPIDOID COMPOSITIONS AND THERAPEUTIC USES THEREOF” (Flagship Pioneering Innovations VII, LLC, priority 2023, published 2025).

Series [1] is described as follows: LNP size and polydispersity index (PDI) by dynamic light scattering (DLS). Format: physicochemical.
The nature of series [2]: LNP Zeta potential measured using a Zetasizer (Malvern). In kind it is physicochemical. To be noted: for Zeta potential: hEPO mRNA, N:P 6; for Zeta (mV): Vaccine Study 2, LNP with spike mRNA, 50/10/38.5/1.5 mol % ionizable lipid:helper lipid:cholesterol:DMG-PEG2k, N-to-P ratio 6; for Zeta potential (mV): LNP with hEPO mRNA, N:P ratio 6.
Series [3] can be described thus: Encapsulation efficiency (EE %) by fluorescence based Ribogreen assay. Format: physicochemical.
Series [4] in a line: Apparent pKa of the LNPs by fluorescence based TNS assay. To be noted: for Apparent pKa: Vaccine Study 2, LNP with spike mRNA, 50/10/38.5/1.5 mol % ionizable lipid:helper lipid:cholesterol:DMG-PEG2k, N-to-P ratio 6.
Where [5] appears, read: Table 8, LNP 50:10:38.5:1.5 mol %, hEPO mRNA, N:P 6.
Setting [6] is: Table 8, LNP Lipid:DSPC:Cholesterol:DMG-PEG2k 50:10:38.5:1.5 mol %, hEPO mRNA, N:P 6.
Where [7] appears, read: Table 8, LNP 50:10:38.5:1.5 mol %.
The mark [8] stands for this setting: Vaccine Study 2, LNP with spike mRNA, 50/10/38.5/1.5 mol % ionizable lipid:helper lipid:cholesterol:DMG-PEG2k, N-to-P ratio 6.
The mark [9] stands for this setting: Table 11, LNP with hEPO mRNA, Lipid:DSPC:Cholesterol:DMG-PEG2k 50:10:38.5:1.5 mol % (ALC-0315: 46.3:9.4:42.7:1.6), N:P ratio 6, HEPES/sodium chloride/sucrose buffer, stored at −80C.
Where [10] appears, read: Table 11, Lipid:DSPC:Cholesterol:DMG-PEG2k 50:10:38.5:1.5 mol % (ALC-0315: 46.3:9.4:42.7:1.6), HEPES/sodium chloride/sucrose buffer, stored at −80C.
The mark [11] stands for this setting: Example 19 Study 1, LNP with SARS-CoV-2 spike mRNA, N:P 6, standard mol. ratios unless noted "opt".
[12] abbreviates: Table 1, LNP lipid:DSPC:Cholesterol:DMG-PEG2k 50:10:38.5:1.5 mol %, hEPO mRNA, N:P 6.
Setting [13] is: Table 10, LNP with hEPO mRNA, Lipid:DSPC:Cholesterol:DMG-PEG2k 50:10:38.5:1.5 mol %, N:P ratio 6, DLS.

The pKa is the negative logarithm of the acid dissociation constant.

Take `CCCCCCCC(CCCCCCC)C(=O)OCCN(CCOC(=O)C(CCCCCCC)CCCCCCC)C(=O)CCCN(C)C` [Compound 932]: the PDI in series [1] (setting [5]) was found to be 0.155. For the same compound, the Size in series [1] (setting [6]) was determined as 123.7 nm. Further, the Zeta potential in series [2] (setting [7]) is on record as −9.4 mV. In series [3] (setting [5]), the “Encapsulation Efficiency %” value is given as 99.9%. The pKa in series [4] (Table 8, apparent pKa of LNP 50:10:38.5:1.5 mol %, hEPO mRNA, N:P 6) was 6.92.
Regarding `CCCCCCCCC(CCCCCC)C(=O)OCCN(CCOC(=O)C(CCCCCC)CCCCCCCC)C(=O)CCCN(CCC)CCC.Cl` (centres unmarked) [Compound 981], in series [1] (setting [8]), the PDI worked out at 0.054 and the “Size (nm)” value is recorded as 84.3 nm. In addition, in series [2], the “Zeta (mV)” value is −8.8 mV. Further, the “EE (%)” value in series [3] (setting [8]) is 98.3%. For the same compound, the “Apparent pKa” value in series [4] was found to be 7.3.
As for `CCCCCCCCC(CCCCCC)C(=O)OCCN(CCOC(=O)C(CCCCCC)CCCCCCCC)C(=O)C(C)CCN(CCCC)CCCC.Cl` (centres unmarked) [Compound 987o], in series [1] (setting [9]), the PDI is reported as 0.121 and the “Size (nm)” value turned out to be 57.4 nm. For the same compound, the “Zeta potential (mV)” value in series [2] (setting [10]) is reported as −4.1 mV. For the same compound, the “Encapsulation Efficiency %” value in series [3] (setting [9]) was found to be 90.2%.
For `CCCCCCCCC(CCCCCC)C(=O)OCCN(CCOC(=O)C(CCCCCC)CCCCCCCC)C(=O)C(C)CCN(C)CCO.Cl` (centres unmarked) [Compound 987p] the same measures were 0.114, 74.2 nm, −1.5 mV and 99.2%.
Turning to `CCCCC/C=C\C/C=C\CCCCCCCCC(CCCCCCCC/C=C\C/C=C\CCCCC)OC(=O)CCCN(C)C` [Dlin-MC3-DMA, dilinoleylmethyl-4-dimethylaminobutyrate, reference compound], in series [4], the “Apparent pKa” value amounted to 6.7.
On to `CCCCCCCCCCCOC(=O)CCCCCN(CCO)CCCCCCCC(=O)OC(CCCCCCCC)CCCCCCCC` [SM-102, reference compound], for which the PDI came to 0.065 in series [1] (setting [11]); 0.074 in series [1] (setting [12]); 0.041 in series [1] (Table 7, LNP 50:10:38.5:1.5 mol %, helper lipid DSPC, hEPO mRNA, N:P 6); 0.042 in series [1] (setting [5]); 0.098 in series [1] (Table 9, LNP 50:10:38.5:1.5 mol %, hEPO mRNA, N:P 6); 0.272 in series [1] (setting [13]). Further, the PDI is recorded as 0.087 in series [1] (setting [9]) and 0.127 in series [1] (setting [8]). The Size in series [1] (setting [11]) is reported as 94.8 nm; in series [1] (setting [12]), 81.8 nm; in series [1] (Table 7, LNP ionizable lipid:Helper Lipid:Cholesterol:DMG-PEG2k 50:10:38.5:1.5 mol %, helper lipid DSPC, hEPO mRNA, N:P 6) it was 75.3 nm; in series [1] (setting [6]), 80.3 nm; in series [1] (Table 9, LNP Lipid:DSPC:Cholesterol:DMG-PEG2k 50:10:38.5:1.5 mol %, hEPO mRNA, N:P 6) it was 80.7 nm. Further, the “Size (nm)” value in series [1] (setting [13]) is 56.5 nm; in series [1] (setting [9]), 69.6 nm; in series [1] (setting [8]), 88.4 nm. In addition, the Zeta potential is given as −3.729 mV in series [2] (Table 1, LNP lipid:DSPC:Cholesterol:DMG-PEG2k 50:10:38.5:1.5 mol %); −17.15 mV in series [2] (Table 7, LNP 50:10:38.5:1.5 mol %, helper lipid DSPC); −9.7 mV in series [2] (setting [7]). Moreover, the “Zeta potential (mV)” value is −5.9 mV in series [2] (Table 10, Lipid:DSPC:Cholesterol:DMG-PEG2k 50:10:38.5:1.5 mol %) and −1.0 mV in series [2] (setting [10]). Further, the “Zeta (mV)” value in series [2] was −4.1 mV. For the same compound, the “EE (%)” value in series [3] (setting [11]) is on record as 91.5%; in series [3] (setting [8]) it was 97.8%. For the same compound, the “Apparent pKa” value in series [4] is on record as 7.2.
